Legend:
[1] = tested on: hiPSC-derived neural crest-like cells; experiment: cMINC (UKN2) neural crest cell migration assay; assay type: cell-based, human; details: listed under the metabolite
Method: (§1) Figure 6 The transfer of the metabolisation module to the neural crest cell migration assay (cMINC). (A) A schematic of the cMINC (circular migration of neural crest cells) assay. The cells were seeded around a central stopper to create a cell-free circular area. Migration was initiated 24 h after seeding by removing the stopper. This is defined as the day of migration (DoM) 0. On DoM 1, the cells were exposed to toxicants. After 24 h of exposure, both cell migration and viability were quantified, using automated high-content imaging. (B) Compatibility of the metabolisation module (preincubation with 500 µg/mL S9 at 37 °C for 2 h) with the cMINC assay: The setup was as described in Figure 4 and as exemplified in Figure 5A. No compound was added (solvent control). The S9 mixture (at 500 µg/mL ± NADPH) was added to the normal cell culture medium of the cMINC assay (so that the addition was 10% of the total volume). Data are from three independent experiments. (C,D) The concentration-dependent effects on migration were evaluated for metabolite mixtures generated from bromethalin (C) or chlorfenapyr (D). […] The arrows indicate the direction of sensitivity shift between NADPH-dependent and -independent metabolite mixtures, with accompanying fold change values. The concentrations are given as nominal concentrations of the parent compound. Abbreviations: n.s., not significant. TEXT PRINTED IN THE PICTURE: (C) Bromethalin: x30 | (D) Chlorfenapyr: x15
The MINC assay was performed as previously described. Briefly, 96-well plates were prepared by inserting a central 2 mm diameter stopper (Platypus Technologies, Madison, WI, USA) into pre-coated wells with a composite poly-L-ornithine (PLO; 10 µg/mL), fibronectin (1 µg/mL), and laminin (1 µg/mL) matrix. […] After a further 24 h (DoM 2), cell migration and viability were assessed. […] High content imaging was performed, and data were analysed using the RingAssay V1 software (http://invitrotox.uni-konstanz.de/, accessed on 3 February 2025). […]

[2] = tested on: hiPSC-derived neural crest-like cells; experiment: S9 metabolisation module followed by cMINC migration assay; assay type: cell-based, human; details: for EC25 migration (+NADPH): metabolite mixture generated with NADPH; for EC25 migration (+NADPH) / EC25 migration (−NADPH): nominal concentration of parent; for EC25 migration (−NADPH): metabolite mixture generated without NADPH; for fold change of potency (EC25) between NADPH-independent and -dependent metabolite mixtures: potency increased with NADPH
Method: as §1
The MINC assay was performed as previously described. Briefly, 96-well plates were prepared by inserting a central 2 mm diameter stopper (Platypus Technologies, Madison, WI, USA) into pre-coated wells with a composite poly-L-ornithine (PLO; 10 µg/mL), fibronectin (1 µg/mL), and laminin (1 µg/mL) matrix. Cryopreserved human induced pluripotent stem cell (hiPSC)-derived neural crest-like cells were thawed and seeded at a density of 95,000 cells/cm^2 around the stopper to create a defined, cell-free circular area. The cells were cultured in N2-S medium supplemented with […] of the cytokines EGF and FGF. After 24 h, the stoppers were removed and the medium refreshed to initiate cell migration into the cell-free centre (defined as the day of migration, DoM 0). On DoM 1, the cells were exposed to test compounds by the addition of a 5× concentrated toxicant solution. After a further 24 h (DoM 2), cell migration and viability were assessed. The cells were stained with 0.5 µM calcein-AM and 1 µg/mL Hoechst 33342 (both from Sigma-Aldrich, Steinheim, Germany). High content imaging was performed, and data were analysed using the RingAssay V1 software (http://invitrotox.uni-konstanz.de/, accessed on 3 February 2025).
In the first step, matched technical replicates were averaged. […] For visualisation, GraphPad Prism 9 was used.
The supernatant was used further.

Structure (SMILES) | increase in potency of metabolite compared to parent (BMC25 ratio) [1] | EC25 migration (+NADPH) [2] | EC25 migration (−NADPH) [2] | fold change of potency (EC25) between NADPH-independent and -dependent metabolite mixtures [2]
O=C(c1ccccc1)c1ccc(O)cc1 [4-Hydroxybenzophenone] | over three | – | – | –
CN(c1c(Br)cc(Br)cc1Br)c1c([N+](=O)[O-])cc([N+](=O)[O-])cc1C(F)(F)F [Bromethalin] | – | 0.026 µM | 0.79 µM | about 30 fold
CCOCn1c(-c2ccc(Cl)cc2)c(C#N)c(Br)c1C(F)(F)F [Chlorfenapyr] | – | 0.6 µM | 9 µM | 15 fold
N#Cc1c(-c2ccc(Cl)cc2)[nH]c(C(F)(F)F)c1Br [Tralopyril] | 28 fold | – | – | –
